Experimental findings from patent publication US8580794B2 (AbbVie Inc., priority 2009, dated 2013) are described below.

The experiment addresses GST-Bc1-2 (Homo sapiens, UniProt P10415). Kind of experiment: Time Resolved-Fluorescence Resonance Energy Transfer (TR-FRET) Bcl-2 binding assay with F-Bak peptide probe. (TR-FRET usually uses a lanthanide donor and a delayed reading to cut background.)
Where [1] appears, read: GST-Bcl-2 1 nM, F-Bak probe 100 nM, Tb-anti-GST 1 nM, '<' = below limit of detection, read-out: TR-FRET Bcl-2 Binding Ki.

pKi: −log10 of the molar value. Where two headings read alike, the source gives them in different places.

GST-Bc1-2, sequence (P10415 whole entry): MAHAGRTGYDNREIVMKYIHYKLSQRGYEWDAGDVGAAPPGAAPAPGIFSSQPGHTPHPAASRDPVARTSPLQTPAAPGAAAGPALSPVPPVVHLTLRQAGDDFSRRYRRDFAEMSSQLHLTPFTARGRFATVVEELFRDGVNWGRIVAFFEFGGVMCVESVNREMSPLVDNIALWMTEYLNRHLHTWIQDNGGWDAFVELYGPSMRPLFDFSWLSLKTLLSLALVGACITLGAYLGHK

The pKi is the negative decadic logarithm of the Ki, by convention in mol/L. Regarding `CC1(C)CCC(CN2CCN(c3ccc(C(=O)NS(=O)(=O)c4cnc(OC5CCN(C6CCOCC6)CC5)c(C#N)c4)c(Oc4cnc5[nH]ccc5c4)c3)CC2)=C(c2ccc(Cl)cc2)C1` [Example 84, 4-(4-{[2-(4-chlorophenyl)-4,4-dimethylcyclohex-1-en-1-yl]methyl}piperazin-1-yl)-N-({5-cyano-6-[(1-tetrahydro-2H-pyran-4-ylpiperidin-4-yl)oxy]pyridin-3-yl}sulfonyl)-2-(1H-pyrrolo[2,3-b]pyridin-5-yloxy)benzamide], under setting [1], the pKi was 9.91.
Regarding `CC(C)c1cc(S(=O)(=O)NC(=O)c2ccc(N3CCN(CC4=C(c5ccc(Cl)cc5)CC(C)(C)CC4)CC3)cc2Oc2cnc3[nH]ccc3c2)cnc1OCC1CCOCC1` [Example 85, 4-(4-{[2-(4-chlorophenyl)-4,4-dimethylcyclohex-1-en-1-yl]methyl}piperazin-1-yl)-N-{[5-isopropyl-6-(tetrahydro-2H-pyran-4-ylmethoxy)pyridin-3-yl]sulfonyl}-2-(1H-pyrrolo[2,3-b]pyridin-5-yloxy)benzamide], under setting [1], the pKi was 9.41.
The same measure, in the same setting: next, `CC1(C)CCC(CN2CCN(c3ccc(C(=O)NS(=O)(=O)c4cc(F)c(NCC5CCOCC5)c(Cl)c4)c(Oc4cnc5[nH]ccc5c4)c3)CC2)=C(c2ccc(Cl)cc2)C1` [Example 86, N-({3-chloro-5-fluoro-4-[(tetrahydro-2H-pyran-4-ylmethyl)amino]phenyl}sulfonyl)-4-(4-{[2-(4-chlorophenyl)-4,4-dimethylcyclohex-1-en-1-yl]methyl}piperazin-1-yl)-2-(1H-pyrrolo[2,3-b]pyridin-5-yloxy)benzamide]: 9.30; `O=C(NS(=O)(=O)c1ccc(NCCCN2CCOCC2)c([N+](=O)[O-])c1)c1ccc(N2CCN(Cc3ccccc3-c3ccc(Cl)cc3)CC2)cc1Oc1ccc2[nH]ccc2c1` [Example 88, 4-{4-[(4′-chloro-1,1′-biphenyl-2-yl)methyl]piperazin-1-yl}-2-(1H-indol-5-yloxy)-N-({4-[(3-morpholin-4-ylpropyl)amino]-3-nitrophenyl}sulfonyl)benzamide]: 9.17.
Regarding `CN1CCC(Nc2ccc(S(=O)(=O)NC(=O)c3ccc(N4CCN(CC5=C(c6ccc(Cl)cc6)CC(C)(C)CC5)CC4)cc3Oc3ccc4[nH]ccc4c3)cc2[N+](=O)[O-])CC1` [Example 90, 4-(4-{[2-(4-chlorophenyl)-4,4-dimethylcyclohex-1-en-1-yl]methyl}piperazin-1-yl)-2-(1H-indol-5-yloxy)-N-({4-[(1-methylpiperidin-4-yl)amino]-3-nitrophenyl}sulfonyl)benzamide], the pKi by setting is: (TR-FRET Bcl-2 Binding Ki) 10.89; (read-out: Bcl-2 FRET ki) 10.89.
Take `CN1CCN(Nc2ccc(S(=O)(=O)NC(=O)c3ccc(N4CCN(CC5=C(c6ccc(Cl)cc6)CC(C)(C)CC5)CC4)cc3Oc3ccc4[nH]ccc4c3)cc2[N+](=O)[O-])CC1` [Example 91, 4-(4-{[2-(4-chlorophenyl)-4,4-dimethylcyclohex-1-en-1-yl]methyl}piperazin-1-yl)-2-(1H-indol-5-yloxy)-N-({4-[(4-methylpiperazin-1-yl)amino]-3-nitrophenyl}sulfonyl)benzamide]: the pKi is 9.31 (TR-FRET Bcl-2 Binding Ki) and 9.31 (read-out: Bcl-2 FRET ki).
Regarding `CC1(C)CCC(CN2CCN(c3ccc(C(=O)NS(=O)(=O)c4ccc(OCC5COCCO5)c([N+](=O)[O-])c4)c(Oc4ccc5[nH]ccc5c4)c3)CC2)=C(c2ccc(Cl)cc2)C1` (stereo not drawn) [Example 92, 4-(4-{[2-(4-chlorophenyl)-4,4-dimethylcyclohex-1-en-1-yl]methyl}piperazin-1-yl)-N-{[4-(1,4-dioxan-2-ylmethoxy)-3-nitrophenyl]sulfonyl}-2-(1H-indol-5-yloxy)benzamide], the pKi is, setting by setting: (TR-FRET Bcl-2 Binding Ki) 9.89; (read-out: Bcl-2 FRET Ki) 9.89; (read-out: Bcl-2 FRET ki) 9.89.
As for `COCCNc1ccc(S(=O)(=O)NC(=O)c2ccc(N3CCN(CC4=C(c5ccc(Cl)cc5)CC(C)(C)CC4)CC3)cc2Oc2ccc3[nH]ccc3c2)cc1S(=O)(=O)C(F)(F)F` [Example 93, 4-(4-{[2-(4-chlorophenyl)-4,4-dimethylcyclohex-1-en-1-yl]methyl}piperazin-1-yl)-2-(1H-indol-5-yloxy)-N-({4-[(2-methoxyethyl)amino]-3-[(trifluoromethyl)sulfonyl]phenyl}sulfonyl)benzamide], the pKi is, setting by setting: under setting [1], 8.46; (read-out: Bcl-2 FRET ki) 7.46.
As for `CC1(C)CCC(CN2CCN(c3ccc(C(=O)NS(=O)(=O)c4ccc(NCC5CCOCC5)c(S(=O)(=O)C(F)(F)F)c4)c(Oc4ccc5[nH]ccc5c4)c3)CC2)=C(c2ccc(Cl)cc2)C1` [Example 94, 4-(4-{[2-(4-chlorophenyl)-4,4-dimethylcyclohex-1-en-1-yl]methyl}piperazin-1-yl)-2-(1H-indol-5-yloxy)-N-({4-[(tetrahydro-2H-pyran-4-ylmethyl)amino]-3-[(trifluoromethyl)sulfonyl]phenyl}sulfonyl)benzamide], the pKi (TR-FRET Bcl-2 Binding Ki) was 9.17 and the pKi (read-out: Bcl-2 FRET ki) is 9.17.
As for `CC1(C)CCC(CN2CCN(c3ccc(C(=O)NS(=O)(=O)c4ccc(NC5CCN(C(CF)CF)CC5)c([N+](=O)[O-])c4)c(Oc4cnc5[nH]ccc5c4)c3)CC2)=C(c2ccc(Cl)cc2)C1` [Example 95, 4-(4-{[2-(4-chlorophenyl)-4,4-dimethylcyclohex-1-en-1-yl]methyl}piperazin-1-yl)-N-{[4-({1-[2-fluoro-1-(fluoromethyl)ethyl]piperidin-4-yl}amino)-3-nitrophenyl]sulfonyl}-2-(1H-pyrrolo[2,3-b]pyridin-5-yloxy)benzamide], the pKi under setting [1] was 10.85.
Still for that read-out and setting: under `CC1(C)CCC(CN2CCN(c3ccc(C(=O)NS(=O)(=O)c4cnc(OCC5(F)CCOCC5)c(Cl)c4)c(Oc4cnc5[nH]ccc5c4)c3)CC2)=C(c2ccc(Cl)cc2)C1` [Example 96, N-({5-chloro-6-[(4-fluorotetrahydro-2H-pyran-4-yl)methoxy]pyridin-3-yl}sulfonyl)-4-(4-{[2-(4-chlorophenyl)-4,4-dimethylcyclohex-1-en-1-yl]methyl}piperazin-1-yl)-2-(1H-pyrrolo[2,3-b]pyridin-5-yloxy)benzamide] stands 10.85.
Same read-out and setting: under `CC1(C)CCC(CN2CCN(c3ccc(C(=O)NS(=O)(=O)c4ccc(NC5CCN(CC(F)F)CC5)c([N+](=O)[O-])c4)c(Oc4cnc5[nH]ccc5c4)c3)CC2)=C(c2ccc(Cl)cc2)C1` [Example 97, 4-(4-{[2-(4-chlorophenyl)-4,4-dimethylcyclohex-1-en-1-yl]methyl}piperazin-1-yl)-N-[(4-{[1-(2,2-difluoroethyl)piperidin-4-yl]amino}-3-nitrophenyl)sulfonyl]-2-(1H-pyrrolo[2,3-b]pyridin-5-yloxy)benzamide] stands 10.77.
Take `CC1(C)CCC(CN2CCN(c3ccc(C(=O)NS(=O)(=O)c4ccc(NC5CCN(C6CC6)CC5)c([N+](=O)[O-])c4)c(Oc4cnc5[nH]ccc5c4)c3)CC2)=C(c2ccc(Cl)cc2)C1` [Example 98, 4-(4-{[2-(4-chlorophenyl)-4,4-dimethylcyclohex-1-en-1-yl]methyl}piperazin-1-yl)-N-({4-[(1-cyclopropylpiperidin-4-yl)amino]-3-nitrophenyl}sulfonyl)-2-(1H-pyrrolo[2,3-b]pyridin-5-yloxy)benzamide]: under setting [1], the negative logarithm of the Ki (pKi) is more than 11.00.
Take `CC1(C)CCC(CN2CCN(c3ccc(C(=O)NS(=O)(=O)c4ccc(NCC5(N6CCOCC6)CCCCC5)c([N+](=O)[O-])c4)c(Oc4cnc5[nH]ccc5c4)c3)CC2)=C(c2ccc(Cl)cc2)C1` [Example 99, 4-(4-{[2-(4-chlorophenyl)-4,4-dimethylcyclohex-1-en-1-yl]methyl}piperazin-1-yl)-N-[(4-{[(1-morpholin-4-ylcyclohexyl)methyl]amino}-3-nitrophenyl)sulfonyl]-2-(1H-pyrrolo[2,3-b]pyridin-5-yloxy)benzamide]: the negative logarithm of the Ki (pKi) under setting [1] is 9.63.
Still for that read-out and setting: under `CC1(C)CCC(CN2CCN(c3ccc(C(=O)NS(=O)(=O)c4ccc(N[C@H]5CC[C@H](N(C6CC6)C6CC6)CC5)c([N+](=O)[O-])c4)c(Oc4cnc5[nH]ccc5c4)c3)CC2)=C(c2ccc(Cl)cc2)C1` [Example 100, Trans-4-(4-{[2-(4-chlorophenyl)-4,4-dimethylcyclohex-1-en-1-yl]methyl}piperazin-1-yl)-N-[(4-{[4-(dicyclopropylamino)cyclohexyl]amino}-3-nitrophenyl)sulfonyl]-2-(1H-pyrrolo[2,3-b]pyridin-5-yloxy)benzamide] stands more than 11.00; under `CCN1CCOCC1COc1ncc(S(=O)(=O)NC(=O)c2ccc(N3CCN(CC4=C(c5ccc(Cl)cc5)CC(C)(C)CC4)CC3)cc2Oc2cnc3[nH]ccc3c2)cc1Br` (stereo not drawn) [Example 102, N-({5-bromo-6-[(4-ethylmorpholin-3-yl)methoxy]pyridin-3-yl}sulfonyl)-4-(4-{[2-(4-chlorophenyl)-4,4-dimethylcyclohex-1-en-1-yl]methyl}piperazin-1-yl)-2-(1H-pyrrolo[2,3-b]pyridin-5-yloxy)benzamide], 10.03; under `CCN1CCOCC1COc1ccc(S(=O)(=O)NC(=O)c2ccc(N3CCN(CC4=C(c5ccc(Cl)cc5)CC(C)(C)CC4)CC3)cc2Oc2cnc3[nH]ccc3c2)cc1[N+](=O)[O-]` (stereo not drawn) [Example 103, 4-(4-{[2-(4-chlorophenyl)-4,4-dimethylcyclohex-1-en-1-yl]methyl}piperazin-1-yl)-N-({4-[(4-ethylmorpholin-3-yl)methoxy]-3-nitrophenyl}sulfonyl)-2-(1H-pyrrolo[2,3-b]pyridin-5-yloxy)benzamide], more than 11.00.
On the same count and under the same terms, next, `CC1(C)CCC(CN2CCN(c3ccc(C(=O)NS(=O)(=O)c4ccc(N[C@H]5CCCN(C6CCOCC6)C5)c([N+](=O)[O-])c4)c(Oc4cnc5[nH]ccc5c4)c3)CC2)=C(c2ccc(Cl)cc2)C1` [Example 105, 4-(4-{[2-(4-chlorophenyl)-4,4-dimethylcyclohex-1-en-1-yl]methyl}piperazin-1-yl)-N-[(3-nitro-4-{[(3S)-1-tetrahydro-2H-pyran-4-ylpiperidin-3-yl]amino}phenyl)sulfonyl]-2-(1H-pyrrolo[2,3-b]pyridin-5-yloxy)benzamide]: more than 11.00.
